In publication PMC9666555, “Genuine selective caspase-2 inhibition with new irreversible small peptidomimetics” (Cell Death & Disease, 2022):
“And” between values parts separate entries of the source, which are not always exact repeats. Equal values may be shown once. Non-standard residues stand in square brackets, D forms with d. Residues, ends and D or L forms follow the SMILES beside them. ξ: configuration not given here. *: point of attachment. ξTHIQ1CO(6-Me) = Cc1ccc2c(c1)CCNC2C(=O)O; X1 = O=C(O)CC(N*)C(=O)COc1c(F)cccc1F; Quinaldoyl = O=C(c1ccc2ccccc2n1)*

Tests used:
[1] = target: T1, recombinant human Casp2 (Homo sapiens, UniProt P42575); assay: Enzyme mechanistic studies (Ki, k3, k3/KI), Caspase-2; format: biochemical
T1 sequence (P42575 170-325 limits assumed): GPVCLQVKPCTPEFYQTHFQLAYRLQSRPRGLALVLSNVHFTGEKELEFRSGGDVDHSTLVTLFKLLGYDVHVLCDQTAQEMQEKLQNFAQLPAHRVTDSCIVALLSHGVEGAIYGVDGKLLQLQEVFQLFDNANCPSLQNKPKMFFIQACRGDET
T1 sequence (P42575 348-452 limits assumed): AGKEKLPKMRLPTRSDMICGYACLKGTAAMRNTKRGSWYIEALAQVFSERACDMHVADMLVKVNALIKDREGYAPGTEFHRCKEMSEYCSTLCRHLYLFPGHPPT
Experimental: (§1) For reversible inhibitors, the mechanisms of inhibition were determined by varying substrate and inhibitor concentrations and using Lineweaver−Burk representations to determine the inhibition constants Ki of competitive inhibitors (Ki = [E][I]/[EI]). For suicide inhibitors, inactivation can be represented by the minimum kinetic scheme (Eq. 2), where E and I are the free forms of enzyme and inhibitor, E * I a kinetic chimera of the Michaelis complex and E − I the covalent complex (inactivated enzyme).2 E+I⇄KIE*I→k3E−I
(§2) KI and k3 are the kinetic constants characterizing the inactivation process and the k3/KI ratio is an index of the inhibitory potency. The first-order rate constant, k3, and the apparent dissociation constant, KI, were determined for Caspase-2 and -3 using the progress curve method. Briefly, the enzyme activities were measured continuously for 120 min. To determine the kinetic parameters, progress curves were obtained at several inhibition concentrations using fixed substrate concentration. The product released for each inhibitor concentration was plotted versus the time following Eq. 3 where the constant π depended on [I]’, a modified inhibitor concentration due to substrate competition, according to Eq. 4. [I]’ is defined by Eq. 5, where KM was Michaelis constant for the enzymatic hydrolysis of the appropriate fluorogenic substrate. The ratio k3/KI was obtained by fitting the experimental data to the equations (F.U., fluorescence unit):3 F.U.=∫0tvidt+F.U0−vo×e^−π×t/π+F.U.0 4 π=k3×[I]^′/KI+[I]^′ 5 [I]^′=[I]/1+S/KM
Linear and nonlinear regression fits of the experimental data to the equations were performed with KaleidaGraph software. The experimental conditions were [Caspase-2]0 = 0.2 nM, [Ac-VDVAD-AMC]0 = 25 µM and [Caspase-3]0 = 0.1 nM, [Ac-DEVD-AMC]0 = 10 µM; [I]0 = 0–100 µM.

[2] = target: T2, recombinant human Casp3 (Homo sapiens, UniProt P42574); assay: Enzyme mechanistic studies (Ki, k3, k3/KI), Caspase-3; format: biochemical; conditions: irreversible inhibitors, progress curve method
T2 sequence (P42574 29-175 limits assumed): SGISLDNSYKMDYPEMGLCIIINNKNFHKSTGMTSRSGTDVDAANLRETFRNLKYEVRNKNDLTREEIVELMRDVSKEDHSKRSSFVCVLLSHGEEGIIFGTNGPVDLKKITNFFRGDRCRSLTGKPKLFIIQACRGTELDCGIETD
T2 sequence (P42574 176-277 limits assumed): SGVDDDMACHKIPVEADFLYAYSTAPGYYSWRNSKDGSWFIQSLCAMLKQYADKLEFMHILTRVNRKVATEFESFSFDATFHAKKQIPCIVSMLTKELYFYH
Experimental: as §1, §2
Linear and nonlinear regression fits of the experimental data to the equations were performed with KaleidaGraph software.

[3] = irreversible inhibitors, progress curve method

Compound	selectivity: inactivation rate (k3/Ki) on Casp2 as compared to Casp3 [1]	Casp2 k3 [1, 3]	Casp2 k3/KI [1, 3]	KI (inactivation) [1, 3]	Casp3 k3 [2]	Casp3 k3/KI [2]	KI (inactivation) [2]	Ki ([1]; irreversible inhibitors, progress curve method, read-out: Casp2 KI)	Ki ([2]; read-out: Casp3 KI)
Cc1ccc2c(c1)CCN(C(=O)[C@@H](NC(=O)[C@H](CC(=O)O)NC(=O)[C@@H](NC(=O)c1ccc3ccccc3n1)C(C)C)C(C)C)C2C(=O)NC(CC(=O)O)C(=O)COc1c(F)cccc1F (stereo partly drawn) [LJ2, Quinolin-2-carbonyl-VDV-(methyl-isoquinolyl)-D-CH2-O(2,6F2)Ph] (Quinaldoyl-VDV[ξTHIQ1CO(6-Me)]-X1)	25 times and ~ 25 times	4,91 ms^−1	~ 1,322,875 M^−1 s^−1 and 1 322 875 M^−1 s^−1 and ~ 1,300,000 M^−1 s^−1	3.68 nM	2,37 ms^−1	51,992 M^−1 s^−1 and 51 992 M^−1 s^−1	47 nM		
CC(C)[C@H](NC(=O)c1ccc2ccccc2n1)C(=O)N[C@@H](CC(=O)O)C(=O)N[C@H](C(=O)N1CC[C@H](CC(C)(C)C)[C@@H]1C(=O)NC(CC(=O)O)C(=O)COc1c(F)cccc1F)C(C)C (some centres unmarked) [LJ3a]	~1000 times and 946 times	5 ± 7 × 10^−4 ms^−1	1,708,996 M^−1 s^−1		0.7 ± 9 × 10^−5 ms^−1	1807 M⁻¹ s⁻¹		2.8 ± 0.8 nM	400 ± 93.3 nM
